The source made the active and inactive calls. The rule behind the calls is not given here.
Legend:
[1] = biological target: T1, Programmed cell death protein 1/Programmed cell death 1 ligand 1 (Homo sapiens, UniProt Q9NZQ7); assay: Inhibition of human Fc-tagged PD1 N-terminal domain (Leu25 to Gln167 residues) expressed in HEK293 cells/human His-tagged PDL1 (Phe19 to Arg238 residues) expressed in HEK293 cells protein-protein interaction after 1 hr by APC-labeled anti-His antibody/Eu-labeled anti-human IgG based HTRF assay; assay type: cell-based
T1 sequence (Q15116 whole entry, the tested form may be a part): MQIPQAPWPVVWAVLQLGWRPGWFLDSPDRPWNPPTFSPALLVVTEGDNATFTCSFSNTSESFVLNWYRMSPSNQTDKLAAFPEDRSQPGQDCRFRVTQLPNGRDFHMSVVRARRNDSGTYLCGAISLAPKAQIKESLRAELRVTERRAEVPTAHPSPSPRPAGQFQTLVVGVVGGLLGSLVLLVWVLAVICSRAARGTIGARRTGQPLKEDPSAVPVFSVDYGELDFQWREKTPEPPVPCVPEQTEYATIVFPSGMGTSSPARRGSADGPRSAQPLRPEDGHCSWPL
T1 sequence (Q9NZQ7 whole entry, the tested form may be a part): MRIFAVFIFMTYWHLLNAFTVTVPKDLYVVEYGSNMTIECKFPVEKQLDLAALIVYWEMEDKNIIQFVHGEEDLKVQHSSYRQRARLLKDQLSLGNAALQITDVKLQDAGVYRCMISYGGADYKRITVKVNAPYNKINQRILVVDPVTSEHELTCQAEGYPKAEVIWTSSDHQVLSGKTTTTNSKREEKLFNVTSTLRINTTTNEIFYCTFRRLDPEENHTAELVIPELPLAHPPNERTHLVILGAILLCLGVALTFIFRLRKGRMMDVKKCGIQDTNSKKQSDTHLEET

[2] = biological target: Programmed cell death protein 1/Programmed cell death 1 ligand 1 (Homo sapiens) (UniProt Q15116+Q9NZQ7); assay: (§1) Inhibition of PD1/PDL1 interaction in human Jurkat cells co-cultured with human U2OS cells expressing PDL1 assessed as reduction in SHP1 recruitment preincubated with U2OS cells for 60 mins followed by Jurkat cell addition and measured after 2 hrs by Pathhunter chemiluminescent assay; assay type: cell-based
[3] = Cytotoxicity against CHOK1 cells stably expressing human PDL1 co-cultured with human Jurkat T cell expressing human PD1 measured after 24 hrs by XTT assay; assay type: cell-based, Cricetulus griseus, CHO-K1; conditions: chinese hamster; read-out: MNCC
[4] = Cytotoxicity against human Jurkat T cell expressing human PD1 co-cultured with CHOK1 cells stably expressing human PDL1 measured after 24 hrs by XTT assay; assay type: cell-based; conditions: read-out: MNCC
[5] = Cytotoxicity against CHOK1 cells stably expressing human PDL1 co-cultured with human Jurkat T cell expressing human PD1 assessed as growth inhibition measured after 24 hrs by XTT assay; assay type: cell-based, Cricetulus griseus, CHO-K1; conditions: chinese hamster
[6] = Cytotoxicity against human Jurkat T cell expressing human PD1 co-cultured with CHOK1 cells stably expressing human PDL1 assessed as growth inhibition measured after 24 hrs by XTT assay; assay type: cell-based
[7] = biological target: Programmed cell death 1 ligand 1 (Homo sapiens) (UniProt Q9NZQ7); assay: Binding affinity to 15N-labelled human PDL1 assessed as induction of oligomerization by 1H-NMR spectra analysis
Programmed cell death 1 ligand 1 (Homo sapiens), sequence (Q9NZQ7 whole entry): as the sequence (Q9NZQ7 whole entry, the tested form may be a part) above

[8] = biological target: Programmed cell death 1 ligand 1 (Homo sapiens) (UniProt Q9NZQ7); assay: Binding affinity to 15N-labelled human PDL1 assessed as induction of protein oligomerization by 1H-15N HMQC spectra analysis
[9] = biological target: T1, Programmed cell death protein 1/Programmed cell death 1 ligand 1; assay: as §1; assay type: cell-based
[10] = biological target: T1, Programmed cell death protein 1/Programmed cell death 1 ligand 1; assay: Inhibition of human PD1 stably expressed in human Jurkat T cells co-expressing NFAT-induced luciferase/human PDL1 stably expressed in CHOK1 cells co-expressing aAPC protein-protein interaction assessed as increase in NFAT signaling measured after 6 hrs by bio-glo luciferase reporter gene assay; assay type: cell-based
[11] = Toxicity weighted activity index, ratio of GI50 for cytotoxicity against CHOK1 cells stably expressing human PDL1 co-cultured with human Jurkat T cell expressing human PD1 to EC50 for inhibition of PD1/PDL1 interaction in human Jurkat cells co-cultured with human U2OS cells expressing PDL1; assay type: cell-based; conditions: chinese hamster; read-out: Ratio GI50/EC50
[12] = Toxicity weighted activity index, ratio of GI50 for Cytotoxicity against human Jurkat T cell expressing human PD1 co-cultured with CHOK1 cells stably expressing human PDL1 to EC50 for inhibition of PD1/PDL1 interaction in human Jurkat cells co-cultured with human U2OS cells expressing PDL1; assay type: cell-based; conditions: read-out: Ratio GI50/EC50
[13] = Toxicity weighted activity index, ratio of GI50 for cytotoxicity against CHOK1 cells stably expressing human PDL1 co-cultured with human Jurkat T cell expressing human PD1 to EC50 for inhibition of human PD1 stably expressed in human Jurkat T cells co-expressing NFAT-induced luciferase/human PDL1 stably expressed in CHOK1 cells co-expressing aAPC protein-protein interaction; assay type: cell-based; conditions: chinese hamster; read-out: Ratio GI50/EC50
[14] = Toxicity weighted activity index, ratio of GI50 for Cytotoxicity against human Jurkat T cell expressing human PD1 co-cultured with CHOK1 cells stably expressing human PDL1 to EC50 for inhibition of human PD1 stably expressed in human Jurkat T cells co-expressing NFAT-induced luciferase/human PDL1 stably expressed in CHOK1 cells co-expressing aAPC protein-protein interaction; assay type: cell-based; conditions: read-out: Ratio GI50/EC50

Compound | IC50 [1] | MNTC at 24 h [3] | MNTC at 24 h [4] | GI50 at 24 h [5] | GI50 at 24 h [6] | Activity [7] | Activity [8] | also measured
CC(=O)NCCNCc1ccc(OCc2ccc3cc(COc4ccc(CNCCNC(C)=O)c(OCc5cncc(C#N)c5)c4)ccc3c2)cc1OCc1cncc(C#N)c1 | 1.17 µM |  |  |  |  |  |  | 
CCNCc1cc(C)c(OCc2cccc(-c3cccc(COc4cc(OCc5cncc(C#N)c5)c(CNCC)cc4C)c3C)c2C)cc1OCc1cncc(C#N)c1 | 0.0038 µM |  |  |  |  |  |  | 
CC(=O)NCCNCc1cc(C)c(OCc2cccc(-c3cccc(COc4cc(OCc5cncc(C#N)c5)c(CNCCNC(C)=O)cc4C)c3C)c2C)cc1OCc1cncc(C#N)c1 |  | 2560 nM | 2560 nM | 11.8 µM | 11.8 µM | Active | Active | inhibition [2]: Dose-dependent effect
CC(=O)NCCNCc1cc(C)c(OCc2cccc(-c3ccccc3)c2C)cc1OCc1cncc(C#N)c1 | 0.0025 µM | 2560 nM | 2560 nM | 8.1 µM | 8.1 µM | Active | Active | EC50 [9]: 0.219 µM; EC50 [10]: 3 µM; selectivity ratio [11]: 37; selectivity ratio [12]: 37; selectivity ratio [13]: 2.7; selectivity ratio [14]: 2.7
COc1nc(OCc2cccc(-c3cccc(COc4ccc(CNCCNC(C)=O)c(OC)n4)c3C)c2C)ccc1CNCCNC(C)=O | 0.025 µM | 2560 nM | 2560 nM | 3.1 µM | 3.1 µM | Active | Active | inhibition [2]: Dose-dependent effect; EC50 [9]: 0.334 µM; EC50 [10]: 4.21 µM; selectivity ratio [11]: 9.3; selectivity ratio [12]: 9.3; selectivity ratio [13]: 0.7; selectivity ratio [14]: 0.7
COc1nc(OCc2cccc(-c3ccccc3)c2C)ccc1CNCCNC(C)=O |  | 2560 nM | 2560 nM | 4.5 µM | 4.5 µM |  |  | 
CCNCc1cc(C)c(OCc2cccc(-c3ccccc3)c2C)cc1OCc1cncc(C#N)c1 | 0.0022 µM |  |  |  |  |  |  | 
CC(=O)NCCNCc1ccc(OCc2ccc(COc3ccc(CNCCNC(C)=O)c(OCc4cncc(C#N)c4)c3)c3ccccc23)cc1OCc1cncc(C#N)c1 | 0.462 µM |  |  |  |  |  |  | 
CC(=O)NCCNCc1ccc(OCc2cccc(COc3ccc(CNCCNC(C)=O)c(OCc4cncc(C#N)c4)c3)c2)cc1OCc1cncc(C#N)c1 | > 10 µM |  |  |  |  |  |  | 
CC(=O)NCCNCc1ccc(OCc2ccc(COc3ccc(CNCCNC(C)=O)c(OCc4cncc(C#N)c4)c3)cc2)cc1OCc1cncc(C#N)c1 | 8.24 µM |  |  |  |  |  |  | 

— ChEMBL document CHEMBL4311949, “Design, Synthesis, Evaluation, and Structural Studies of C2-Symmetric Small Molecule Inhibitors of Programmed Cell Death-1/Programmed Death-Ligand 1 Protein-Protein Interaction” (J Med Chem, 2019)
